From patent publication US7713994B2 (Wyeth LLC, priority 2005, dated 2010)
Read-outs that look alike come from different tables or passages of the source.

Legend:
cyclin E/CDK2 enzyme = molecular target: T1, cyclin E/CDK2 enzyme (Homo sapiens, UniProt P24941); assay: CDK2 ELISA kinase assay (phospho-Rb ser 795 detection); type: biochemical
T1 construct: made in house; host or cells: Sf9 insect cells, recombinant baculovirus
Procedure, shortened: (§1)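 Sf9-derived cyclin/CDK, 200 μM ATP, immobilized GST-Rb; 30° C/1 h. Detection: phospho-Ser795 Ab, HRP, TMB, OD450.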

cyclin D1/cdk 4 enzyme = molecular target: T2, cyclin D1/cdk 4 enzyme (Homo sapiens, UniProt P11802); assay: CDK4 ELISA kinase assay (phospho-Rb ser 795 detection); type: biochemical
T2 construct: made in house; host or cells: Sf9 insect cells, recombinant baculovirus
Procedure, shortened: as §1

MCF-7 = assay: Cytotoxicity assay (SRB), MCF-7; type: cell-based; conditions: Homo sapiens, MCF7, 72 h, MCF-7 cells, SRB, read-out: In Vitro Cellular Activity IC50 MCF-7
Procedure, shortened: (§2)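 Seeding: BT474 12000, HCT-116 4000, LoVo 6000, MCF-7 6000 cells/well; overnight attachment, 37 °C, 7% CO2. Drug exposure 3 d (BT474 6 d), RPMI 1640 + 5% FBS. Readout: TCA fix, 0.4% SRB, Tris solubilisation, A540.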

LoVo = assay: Cytotoxicity assay (SRB), LoVo; type: cell-based; conditions: Homo sapiens, LoVo, 72 h, LoVo cells, SRB, read-out: In Vitro Cellular Activity IC50 LOVO
Procedure, shortened: as §2

HCT-116 = assay: Cytotoxicity assay (SRB), HCT-116; type: cell-based; conditions: Homo sapiens, HCT-116, 72 h, HCT116 cells, SRB, read-out: In Vitro Cellular Activity IC50 HCT116
Procedure, shortened: as §2

cyclin B/CDK1 enzyme = molecular target: T3, cyclin B/CDK1 enzyme (Homo sapiens, UniProt P06493); assay: CDK1 ELISA kinase assay (phospho-Rb ser 795 detection); type: biochemical
T3 construct: purchased New England BioLabs; host or cells: Sf9 insect cells, recombinant baculovirus
Procedure, shortened: as §1

BT474 = assay: Cytotoxicity assay (SRB), BT474; type: cell-based
Procedure, shortened: as §2

[1] = In Vitro Enzyme Assays, read-out: CDK2 IC50
[2] = In Vitro Enzyme Assays, 200 μM ATP, read-out: CDK4 IC50
[3] = In Vitro Enzyme Assays, read-out: CDK1 IC50
[4] = Homo sapiens, BT-474, 144 h, BT474 cells, 6 days, SRB; read-out: In Vitro Cellular Activity IC50 BT474
[5] = Homo sapiens, BT-474, 144 h, BT474 cells, SRB, 6 days; read-out: In Vitro Cellular Activity IC50 BT474
[6] = In Vitro Enzyme Assay, cyclin E/CDK2, read-out: CDK2 IC50
[7] = In Vitro Enzyme Assay, cyclin D1/cdk 4, read-out: CDK4 IC50
[8] = In Vitro Enzyme Assay, cyclin B/CDK1, read-out: CDK1 IC50

T3 sequence (P06493 whole entry): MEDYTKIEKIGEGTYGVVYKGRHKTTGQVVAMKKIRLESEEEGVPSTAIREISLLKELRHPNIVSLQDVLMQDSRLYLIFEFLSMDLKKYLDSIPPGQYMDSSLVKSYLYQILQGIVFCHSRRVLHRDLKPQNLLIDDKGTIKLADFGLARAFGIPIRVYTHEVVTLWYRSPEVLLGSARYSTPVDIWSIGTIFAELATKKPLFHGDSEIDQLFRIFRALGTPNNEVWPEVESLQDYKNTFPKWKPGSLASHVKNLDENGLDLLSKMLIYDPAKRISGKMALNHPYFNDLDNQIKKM
T3 sequence (P14635 whole entry partner): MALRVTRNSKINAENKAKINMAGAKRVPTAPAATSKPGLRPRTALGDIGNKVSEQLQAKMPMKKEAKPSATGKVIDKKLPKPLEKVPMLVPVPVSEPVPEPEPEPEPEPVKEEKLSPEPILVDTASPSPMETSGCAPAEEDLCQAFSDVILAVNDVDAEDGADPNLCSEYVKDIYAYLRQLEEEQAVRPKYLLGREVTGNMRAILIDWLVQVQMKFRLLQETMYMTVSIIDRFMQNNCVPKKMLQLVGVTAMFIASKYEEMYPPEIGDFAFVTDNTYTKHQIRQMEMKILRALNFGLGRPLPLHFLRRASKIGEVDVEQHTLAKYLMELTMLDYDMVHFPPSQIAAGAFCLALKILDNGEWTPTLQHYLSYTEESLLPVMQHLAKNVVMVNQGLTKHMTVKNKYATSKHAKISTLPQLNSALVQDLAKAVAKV
T2 sequence (P11802 whole entry, species assumed): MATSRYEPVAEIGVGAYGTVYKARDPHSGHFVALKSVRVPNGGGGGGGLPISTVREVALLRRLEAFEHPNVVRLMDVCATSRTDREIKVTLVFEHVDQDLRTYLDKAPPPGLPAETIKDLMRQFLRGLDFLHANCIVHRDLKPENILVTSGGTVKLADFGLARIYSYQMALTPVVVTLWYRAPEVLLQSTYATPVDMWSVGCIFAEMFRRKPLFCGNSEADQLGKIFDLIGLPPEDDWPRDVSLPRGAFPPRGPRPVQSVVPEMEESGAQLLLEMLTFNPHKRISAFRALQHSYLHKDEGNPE
T2 sequence (P24385 whole entry partner, species assumed): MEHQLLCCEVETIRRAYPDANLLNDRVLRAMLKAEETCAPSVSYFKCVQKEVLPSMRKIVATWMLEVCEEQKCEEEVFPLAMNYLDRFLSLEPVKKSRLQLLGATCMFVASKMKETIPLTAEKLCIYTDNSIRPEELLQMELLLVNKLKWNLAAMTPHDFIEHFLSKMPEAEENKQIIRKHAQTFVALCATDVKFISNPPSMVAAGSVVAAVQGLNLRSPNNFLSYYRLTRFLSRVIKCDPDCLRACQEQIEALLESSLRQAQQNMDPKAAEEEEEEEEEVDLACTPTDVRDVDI

IC50 (cyclin E/CDK2 enzyme; [1]) [µM] | IC50 (cyclin D1/cdk 4 enzyme; [2]) [µM] | IC50 (cyclin B/CDK1 enzyme; [3]) [µM] | melting point | IC50 (cyclin E/CDK2 enzyme; [6]) [µM] | IC50 (cyclin D1/cdk 4 enzyme; [7]) [µM] | IC50 (cyclin B/CDK1 enzyme; [8]) [µM] | SMILES | IC50 (MCF-7; 3 days) [µM] | IC50 (LoVo; 3 days) [µM] | IC50 (HCT-116; 3 days) [µM] | IC50 (BT474; [4]) [µM] | IC50 (MCF-7; three days) [µM] | IC50 (LoVo; three days) [µM] | IC50 (HCT-116; three days) [µM] | IC50 (BT474; [5]) [µM]
> 50 | 1.4 | > 50 | 130 to 131 °C | – | – | – | CN(C)C[C@@H]1CCCN1Cc1ccc(N/C=C2\C(=O)NC(=O)c3ccc(I)cc32)cc1 [Example 423] | 4.3 | 4.5 | 3.8 | 5.4 | – | – | – | –
> 50 | 0.21 | > 50 | 199 to 200 °C | – | – | – | COC1CCN(Cc2ccc(N/C=C3\C(=O)NC(=O)c4ccc(I)cc43)cc2)CC1 [Example 394, (4Z)-6-Iodo-4-[({4-[(4-methoxypiperidin-1-yl)methyl]phenyl}amino)methylene]isoquinoline-1,3(2H,4H)-dione] | 2.6 | 3.7 | 3.7 | 4.03 | – | – | – | –
> 50 | 0.15 | > 50 | 278 to 279 °C | – | – | – | O=C1NC(=O)c2ccc(Br)cc2/C1=C/NCc1ccc(NC(=O)C(F)(F)F)c(O)c1 [Example 218, N-[4-({[(Z)-(6-Bromo-1,3-dioxo-2,3-dihydroisoquinolin-4(1H)-′ylidene)methyl]amino}methyl)-2-hydroxyphenyl]-2,2,2-trifluoroacetamide] | – | – | – | – | 19 | 4.5 | 3.3 | 2.6
> 50 | 1.1 | > 50 | 209 to 210 °C | – | – | – | COCC#Cc1ccc2c(c1)/C(=C/Nc1ccc(N3CCN(C)CC3)cc1)C(=O)NC2=O [Example 177, (4Z)-6-(3-Methoxyprop-1-ynyl)-4-({[4-(4-methylpiperazin-1-yl)phenyl]amino}-methylene)isoquinoline-1,3(2H,4H)-dione] | – | – | – | – | 4.1 | 3.9 | 3.1 | 3.9
> 50 | 0.14 | > 50 | 157 to 158 °C | – | – | – | CC1CCCN1Cc1ccc(N/C=C2\C(=O)NC(=O)c3ccc(I)cc32)cc1 (stereo not shown) [Example 138, (4Z)-6-Iodo-4-[({4-[(2-methylpyrrolidin-1-yl)methyl]phenyl}amino)methylene]isoquinoline-1,3(2H,4H)-dione] | – | – | – | – | 1.2 | 4.9 | 3.7 | 0.41
> 50 | 0.04 | > 50 | 251 to 254 °C (dec.) | – | – | – | COc1coc(CNC=C2C(=O)NC(=O)c3ccc(-n4cccc4)cc32)cc1=O [Example 317, 4-{[(5-Methoxy-4-oxo-4H-pyran-2-ylmethyl)-amino]-methylene}-6-pyrrol-1-yl-4H-isoquinoline-1,3-dione] | – | – | – | – | 8.4 | 4.7 | 12 | 5.2
> 50 | 0.04 | > 50 | 194 to 195 °C | – | – | – | CCCOc1ccc(CN/C=C2\C(=O)NC(=O)c3ccc(-c4ccc(F)cc4)cc32)cc1O [Example 192, (4Z)-6-(4-Fluorophenyl)-4-{[(3-hydroxy-4-propoxybenzyl)amino]methylene}-isoquinoline-1,3(2H,4H)-dione] | – | – | – | – | 2.4 | 40 | 6.8 | 16
– | – | – | 275 to 276 °C | > 50 | 0.82 | 24.7 | CN1CCN(c2ccc(N/C=C3\C(=O)NC(=O)c4ccc(-c5ccoc5)cc43)nn2)CC1 [Example 476, (4Z)-6-(3-Furyl)-4-({[6-(4-methylpiperazin-1-yl)pyridazin-3-yl]amino}methylene)isoquinoline-1,3(2H,4H)-dione] | 4.5 | 3.1 | 1.9 | 2.6 | – | – | – | –
> 50 | 9.4 | 16.9 | 242 to 243 °C | – | – | – | CN1CCN(c2ccc(N/C=C3\C(=O)NC(=O)c4ccc(F)cc43)cc2)CC1 [Example 70, (4Z)-6-Fluoro-4-({[4-(4-methylPiperzin-1-yl)phenyl]amino}methylene)isoquinoline-1,3(2H,4H)-dione] | – | – | – | – | 4.06 | 5.18 | 2.55 | 3.23
– | – | – | 230 to 231 °C | 15.8 | 0.06 | > 50 | O=C1NC(=O)c2ccc(I)cc2/C1=C/NCc1ccc(-n2cccc2)c(O)c1 [Example 514, (4Z)-4-({[3-Hydroxy-4-(1H-pyrrol-1-yl)benzyl]amino}methylene)-6-iodoisoquinoline-1,3(2H,4H)-dione] | 2.25 | 0.74 | 1.04 | 0.59 | – | – | – | –
37.2 | 0.02 | 47.6 | 240 to 241 °C | – | – | – | COc1cc(CN/C=C2\C(=O)NC(=O)c3ccc(-c4ccc(Cl)cc4)cc32)cc(O)c1OC [Example 113, (4Z)-6-(4-Chlorophenyl)-4-{[(3-hydroxy-4,5-dimethoxybenzyl)amino]methylene}isoquinoline-1,3(2H,4H)-dione] | – | – | – | – | 6.2 | 2.9 | 5.8 | 11
> 50 | 0.29 | > 50 | 134 to 135 °C | – | – | – | CN(C)C1CCN(Cc2ccc(N/C=C3\C(=O)NC(=O)c4ccc(I)cc43)cc2)C1 (stereo not shown) [Example 422, (4Z)-4-{[(4-{[3-(Dimethylamino)pyrrolidin-1-yl]methyl}phenyl)amino]methylene}-6-iodoisoquinoline-1,3(2H,4H)-dione] | 5.6 | 3.8 | 2 | 3.7 | – | – | – | –
25.3 | 3.3 | 15.8 | 191 to 192 °C | – | – | – | CN1CCN(c2ccc(N/C=C3\C(=O)NC(=O)c4ccc(Br)cc43)nc2)CC1 [Example 442, (4Z)-6-Bromo-4-({[5-(4-methylpiperazin-1-yl)pyridin-2-yl]amino}methylene)isoquinoline-1,3(2H,4H)-dione] | 2.4 | 4.1 | 1.1 | 3.7 | – | – | – | –
> 50 | 2.8 | > 50 | 265 to 266 °C | – | – | – | CN1CCN(c2ccc(N/C=C3\C(=O)NC(=O)c4ccc(Br)cc43)cn2)CC1 [Example 250, (4Z)-6-Bromo-4-({[6-(4-methylpiperazin-1-yl)pyridin-3-′yl]amino}methylene)isoquinoline-1,3(2H,4H)-dione] | – | – | – | – | 1.6 | 7.1 | 6.2 | 7.6
2.9 | 0.031 | 22.3 | 240 to 242 °C (dec.) | – | – | – | COc1ccc2c(c1)/C(=C/NCc1ccc(OC)c(O)c1)C(=O)NC2=O [Example 90, 4-[(3-Hydroxy-4-methoxy-benzylamino)-methylene]-6-methoxy-4H-isoquinoline-1,3-dione] | – | – | – | – | 12 | 24 | 9.8 | 6.9
3.3 | 2.3 | 1.7 | 193 to 194 °C | – | – | – | CN1CCN(c2ccc(N/C=C3\C(=O)NC(=O)c4ccc(C#Cc5ccsc5)cc43)cc2)CC1 [Example 187, (4Z)-4-({[4-(4-Methylpiperazin-1-yl)phenyl]amino}methylene)-6-(thien-3-ylethynyl)-isoquinoline-1,3(2H,4H)-dione] | – | – | – | – | 3 | 8.5 | 1.1 | 2.9

SMILES | IC50 (cyclin E/CDK2 enzyme; [1]) [µM] | IC50 (cyclin D1/cdk 4 enzyme; [2]) [µM] | IC50 (cyclin B/CDK1 enzyme; [3]) [µM] | melting point | IC50 (cyclin E/CDK2 enzyme; [6]) [µM] | IC50 (cyclin D1/cdk 4 enzyme; [7]) [µM] | IC50 (cyclin B/CDK1 enzyme; [8]) [µM] | IC50 (MCF-7; 3 days) [µM] | IC50 (LoVo; 3 days) [µM] | IC50 (HCT-116; 3 days) [µM] | IC50 (BT474; [4]) [µM] | IC50 (MCF-7; three days) [µM] | IC50 (LoVo; three days) [µM] | IC50 (HCT-116; three days) [µM] | IC50 (BT474; [5]) [µM]
CC(=O)Oc1cc(CNC=C2C(=O)NC(=O)c3ccc(Br)cc32)cc(OC(C)=O)c1 [Example 69, Acetic acid 3-acetoxy-5-{[(6-bromo-1,3-dioxo-2,3-dihydro-1H-isoquinolin-4-ylidenemethyl)-amino]-methyl}-phenyl ester] | 44.5 | 0.12 | > 50 | 257 to 258 °C | – | – | – | – | – | – | – | 8.2 | 5.2 | 6.5 | 5.6
